Measurements as given in ChEMBL document CHEMBL5465560, “Selectivity Literature for EUbOPEN Chemogenomic Library” (2024).
Each block holds one compound with its values, some of them ahead of it.

How the values were obtained:
[1] = target: Serine/threonine-protein kinase 10 (Homo sapiens) (UniProt O94804); assay: Selectivity interaction (ActivX KiNativ screen (kinase selectivity in THP-1 cell lysates)) EUB0000639a STK10; format: subcellular; conditions: lysate, at 1 µM
[2] = target: Serine/threonine-protein kinase 25 (Homo sapiens) (UniProt O00506); assay: Selectivity interaction (Kinase panel (Z-LYTE Assay)) EUB0001632a STK25; conditions: at 10 µM
[3] = target: Cannabinoid receptor 2 (Homo sapiens) (UniProt P34972); assay: Selectivity interaction (Eurofins CEREP Diversity Profile (receptors and ion channels)) EUB0000279b CNR2; conditions: at 10 µM
[4] = target: LIM domain kinase 2 (Homo sapiens) (UniProt P53671); conditions: at 10 µM
[5] = target: T1, Mitogen-activated protein kinase kinase kinase kinase 2 (Homo sapiens) (UniProt Q12851); assay: Selectivity interaction (KinomeScan (DiscoverX)) EUB0000595a MAP4K2; conditions: at 10 µM
T1 sequence (whole entry): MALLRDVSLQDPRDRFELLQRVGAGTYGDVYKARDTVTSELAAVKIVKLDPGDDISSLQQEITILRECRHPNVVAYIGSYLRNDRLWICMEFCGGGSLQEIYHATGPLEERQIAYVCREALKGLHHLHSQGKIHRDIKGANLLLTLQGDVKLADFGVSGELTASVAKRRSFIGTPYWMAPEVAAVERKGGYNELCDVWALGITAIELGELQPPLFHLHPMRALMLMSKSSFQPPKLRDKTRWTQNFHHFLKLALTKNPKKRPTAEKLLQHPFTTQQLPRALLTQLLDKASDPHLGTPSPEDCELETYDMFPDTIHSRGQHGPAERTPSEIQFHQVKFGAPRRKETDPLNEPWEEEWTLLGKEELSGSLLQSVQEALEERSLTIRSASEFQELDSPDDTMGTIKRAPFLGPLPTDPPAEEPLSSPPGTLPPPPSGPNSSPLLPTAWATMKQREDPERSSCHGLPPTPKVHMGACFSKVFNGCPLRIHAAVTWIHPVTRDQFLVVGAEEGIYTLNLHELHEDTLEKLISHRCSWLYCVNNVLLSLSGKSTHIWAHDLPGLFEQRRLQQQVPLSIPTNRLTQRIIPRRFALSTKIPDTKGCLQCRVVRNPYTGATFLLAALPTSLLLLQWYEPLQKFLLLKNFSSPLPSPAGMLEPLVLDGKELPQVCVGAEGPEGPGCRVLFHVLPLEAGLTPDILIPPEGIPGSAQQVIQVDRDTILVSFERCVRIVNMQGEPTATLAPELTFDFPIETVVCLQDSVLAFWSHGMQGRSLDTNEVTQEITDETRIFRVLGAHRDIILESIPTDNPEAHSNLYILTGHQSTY

[6] = target: Tyrosine-protein kinase FRK (Homo sapiens) (UniProt P42685); assay: Selectivity interaction (KinomeScan (DiscoverX)) EUB0000229b FRK; conditions: at 10 µM
[7] = target: Serine/threonine-protein kinase PAK 6 (Homo sapiens) (UniProt Q9NQU5); assay: Selectivity interaction (ProQinase) EUB0000171b PAK6; conditions: at 1 µM
[8] = target: Ephrin type-A receptor 4 (Homo sapiens, UniProt P54764); assay: Selectivity interaction (KinomeScan (DiscoverX)) EUB0000655a EPHA4; conditions: at 10 µM
[9] = target: T2, Serine/threonine-protein kinase ULK2 (Homo sapiens) (UniProt Q8IYT8); assay: Selectivity interaction (KinomeScan (DiscoverX)) EUB0000607a ULK2; conditions: at 10 µM
T2 sequence (whole entry): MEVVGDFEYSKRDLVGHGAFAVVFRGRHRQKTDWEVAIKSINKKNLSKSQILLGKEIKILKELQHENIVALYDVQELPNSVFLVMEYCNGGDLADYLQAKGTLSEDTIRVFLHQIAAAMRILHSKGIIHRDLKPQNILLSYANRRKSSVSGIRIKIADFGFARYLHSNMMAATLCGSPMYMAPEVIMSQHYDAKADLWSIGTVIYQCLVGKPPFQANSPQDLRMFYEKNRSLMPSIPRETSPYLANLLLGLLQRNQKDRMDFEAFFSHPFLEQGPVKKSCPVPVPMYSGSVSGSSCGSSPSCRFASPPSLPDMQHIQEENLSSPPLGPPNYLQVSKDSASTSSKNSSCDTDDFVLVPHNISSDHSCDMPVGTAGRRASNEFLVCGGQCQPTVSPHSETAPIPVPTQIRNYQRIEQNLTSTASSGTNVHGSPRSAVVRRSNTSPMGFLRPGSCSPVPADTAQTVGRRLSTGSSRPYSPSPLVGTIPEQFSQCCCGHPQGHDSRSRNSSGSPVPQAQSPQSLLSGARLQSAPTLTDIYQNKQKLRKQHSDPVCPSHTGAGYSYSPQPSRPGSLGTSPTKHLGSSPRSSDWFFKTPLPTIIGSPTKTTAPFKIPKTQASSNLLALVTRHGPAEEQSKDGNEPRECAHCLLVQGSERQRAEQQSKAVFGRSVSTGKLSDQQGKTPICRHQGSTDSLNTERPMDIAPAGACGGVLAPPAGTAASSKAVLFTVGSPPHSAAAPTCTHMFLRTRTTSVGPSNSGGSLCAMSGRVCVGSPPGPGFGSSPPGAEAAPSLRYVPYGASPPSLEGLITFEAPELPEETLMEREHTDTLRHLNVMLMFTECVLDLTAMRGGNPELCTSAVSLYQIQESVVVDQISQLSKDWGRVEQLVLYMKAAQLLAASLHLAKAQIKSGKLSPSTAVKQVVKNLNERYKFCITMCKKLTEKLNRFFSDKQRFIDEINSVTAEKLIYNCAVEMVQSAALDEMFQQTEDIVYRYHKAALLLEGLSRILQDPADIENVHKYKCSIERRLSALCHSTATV

[10] = target: T3, Mitogen-activated protein kinase kinase kinase 2 (Homo sapiens) (UniProt Q9Y2U5); assay: Selectivity interaction (KinomeScan (DiscoverX)) EUB0000666a MAP3K2; conditions: at 10 µM
T3 sequence (whole entry): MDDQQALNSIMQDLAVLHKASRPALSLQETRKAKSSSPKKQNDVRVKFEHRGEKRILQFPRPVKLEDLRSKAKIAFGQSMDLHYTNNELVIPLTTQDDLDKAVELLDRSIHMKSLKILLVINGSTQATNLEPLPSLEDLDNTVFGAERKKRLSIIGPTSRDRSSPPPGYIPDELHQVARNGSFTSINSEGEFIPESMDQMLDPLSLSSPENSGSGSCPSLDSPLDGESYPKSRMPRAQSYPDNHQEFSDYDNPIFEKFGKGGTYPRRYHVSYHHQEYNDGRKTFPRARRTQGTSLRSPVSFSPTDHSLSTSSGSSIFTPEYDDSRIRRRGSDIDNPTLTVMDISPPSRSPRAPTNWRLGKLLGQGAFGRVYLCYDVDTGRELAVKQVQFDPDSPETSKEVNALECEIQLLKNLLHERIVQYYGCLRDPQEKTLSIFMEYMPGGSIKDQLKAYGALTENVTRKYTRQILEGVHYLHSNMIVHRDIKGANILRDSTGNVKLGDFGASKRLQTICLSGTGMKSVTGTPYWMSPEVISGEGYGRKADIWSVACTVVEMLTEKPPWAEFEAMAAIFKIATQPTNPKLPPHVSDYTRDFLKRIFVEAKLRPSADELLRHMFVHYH

Serine/threonine-protein kinase 10 (Homo sapiens), sequence (O94804 whole entry, looked up): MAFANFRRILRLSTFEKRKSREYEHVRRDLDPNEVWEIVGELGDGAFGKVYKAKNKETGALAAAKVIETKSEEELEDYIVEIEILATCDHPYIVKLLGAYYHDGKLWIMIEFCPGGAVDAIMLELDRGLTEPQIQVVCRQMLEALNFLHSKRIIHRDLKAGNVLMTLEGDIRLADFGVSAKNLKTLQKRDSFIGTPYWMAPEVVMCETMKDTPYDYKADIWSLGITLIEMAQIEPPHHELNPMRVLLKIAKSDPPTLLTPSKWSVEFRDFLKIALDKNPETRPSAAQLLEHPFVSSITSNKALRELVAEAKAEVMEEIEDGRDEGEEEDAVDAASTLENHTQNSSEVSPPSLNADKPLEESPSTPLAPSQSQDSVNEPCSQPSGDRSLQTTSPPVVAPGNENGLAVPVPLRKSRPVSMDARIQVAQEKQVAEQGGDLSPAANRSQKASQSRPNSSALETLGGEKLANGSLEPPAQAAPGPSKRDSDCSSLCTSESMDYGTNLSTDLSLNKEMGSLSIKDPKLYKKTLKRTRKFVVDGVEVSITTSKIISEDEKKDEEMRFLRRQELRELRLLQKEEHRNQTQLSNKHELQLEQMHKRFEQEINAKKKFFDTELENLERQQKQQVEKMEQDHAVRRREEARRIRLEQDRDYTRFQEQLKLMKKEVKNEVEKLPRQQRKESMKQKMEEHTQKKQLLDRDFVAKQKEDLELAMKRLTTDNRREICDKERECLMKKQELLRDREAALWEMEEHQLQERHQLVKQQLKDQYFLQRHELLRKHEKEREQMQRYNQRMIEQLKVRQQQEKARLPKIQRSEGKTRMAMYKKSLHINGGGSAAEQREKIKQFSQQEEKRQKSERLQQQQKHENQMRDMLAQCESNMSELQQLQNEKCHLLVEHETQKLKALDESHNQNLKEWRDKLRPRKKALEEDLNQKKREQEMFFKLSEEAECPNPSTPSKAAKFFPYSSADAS
Serine/threonine-protein kinase PAK 6 (Homo sapiens), sequence (Q9NQU5 whole entry, looked up): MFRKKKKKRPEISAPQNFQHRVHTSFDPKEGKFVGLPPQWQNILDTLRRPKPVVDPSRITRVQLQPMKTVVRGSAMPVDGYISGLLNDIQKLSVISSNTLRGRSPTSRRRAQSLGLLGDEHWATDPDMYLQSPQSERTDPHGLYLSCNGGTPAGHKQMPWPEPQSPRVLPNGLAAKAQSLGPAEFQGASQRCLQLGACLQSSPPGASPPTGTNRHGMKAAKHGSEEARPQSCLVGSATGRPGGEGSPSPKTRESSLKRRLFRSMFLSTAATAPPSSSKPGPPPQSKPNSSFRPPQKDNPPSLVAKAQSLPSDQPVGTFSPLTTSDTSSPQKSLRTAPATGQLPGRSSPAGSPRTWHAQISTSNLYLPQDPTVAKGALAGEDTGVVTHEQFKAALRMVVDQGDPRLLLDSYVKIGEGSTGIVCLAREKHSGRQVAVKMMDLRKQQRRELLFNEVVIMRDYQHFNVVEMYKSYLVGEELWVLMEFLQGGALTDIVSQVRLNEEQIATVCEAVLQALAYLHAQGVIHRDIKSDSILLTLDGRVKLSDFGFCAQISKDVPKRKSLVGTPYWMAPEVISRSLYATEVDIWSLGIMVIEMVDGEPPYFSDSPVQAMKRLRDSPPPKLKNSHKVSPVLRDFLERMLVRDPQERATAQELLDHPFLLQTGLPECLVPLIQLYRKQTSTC
Ephrin type-A receptor 4, sequence (P54764 whole entry): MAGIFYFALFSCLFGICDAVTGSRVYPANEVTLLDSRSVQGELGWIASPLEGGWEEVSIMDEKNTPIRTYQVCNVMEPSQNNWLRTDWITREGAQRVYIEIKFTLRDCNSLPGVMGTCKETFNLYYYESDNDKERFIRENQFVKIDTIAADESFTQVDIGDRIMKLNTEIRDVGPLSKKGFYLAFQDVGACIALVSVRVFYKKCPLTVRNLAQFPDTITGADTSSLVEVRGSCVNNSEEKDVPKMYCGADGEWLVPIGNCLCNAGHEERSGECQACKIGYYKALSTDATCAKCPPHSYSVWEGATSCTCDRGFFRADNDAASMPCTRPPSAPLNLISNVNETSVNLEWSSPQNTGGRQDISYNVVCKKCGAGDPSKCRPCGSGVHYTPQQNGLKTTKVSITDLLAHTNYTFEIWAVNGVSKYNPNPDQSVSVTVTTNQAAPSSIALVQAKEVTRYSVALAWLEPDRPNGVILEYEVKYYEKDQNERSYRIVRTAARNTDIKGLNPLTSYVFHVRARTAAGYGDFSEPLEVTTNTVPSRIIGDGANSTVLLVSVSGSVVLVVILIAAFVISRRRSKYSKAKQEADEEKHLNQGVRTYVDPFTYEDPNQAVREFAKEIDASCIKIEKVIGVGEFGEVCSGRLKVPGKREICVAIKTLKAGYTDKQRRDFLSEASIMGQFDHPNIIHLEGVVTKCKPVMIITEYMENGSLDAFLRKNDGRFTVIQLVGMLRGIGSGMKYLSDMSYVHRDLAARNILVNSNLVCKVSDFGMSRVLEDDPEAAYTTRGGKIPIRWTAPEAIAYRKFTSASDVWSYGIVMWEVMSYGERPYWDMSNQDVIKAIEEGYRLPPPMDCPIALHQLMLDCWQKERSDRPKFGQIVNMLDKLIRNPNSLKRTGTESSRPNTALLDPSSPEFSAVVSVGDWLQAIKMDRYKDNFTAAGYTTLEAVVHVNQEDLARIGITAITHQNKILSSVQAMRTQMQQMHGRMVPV
Cannabinoid receptor 2 (Homo sapiens), sequence (P34972 whole entry, the tested form may be a part): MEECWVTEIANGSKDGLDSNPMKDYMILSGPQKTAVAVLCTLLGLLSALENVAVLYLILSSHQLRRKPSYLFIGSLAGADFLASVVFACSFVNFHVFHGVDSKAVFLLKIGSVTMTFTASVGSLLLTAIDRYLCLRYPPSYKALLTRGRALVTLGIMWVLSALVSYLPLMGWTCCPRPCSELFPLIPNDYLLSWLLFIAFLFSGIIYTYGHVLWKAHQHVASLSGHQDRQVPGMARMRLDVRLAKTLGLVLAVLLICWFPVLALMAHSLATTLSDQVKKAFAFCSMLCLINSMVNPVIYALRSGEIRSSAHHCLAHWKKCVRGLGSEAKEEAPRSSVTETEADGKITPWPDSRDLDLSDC
Serine/threonine-protein kinase 25 (Homo sapiens), sequence (O00506 whole entry, looked up): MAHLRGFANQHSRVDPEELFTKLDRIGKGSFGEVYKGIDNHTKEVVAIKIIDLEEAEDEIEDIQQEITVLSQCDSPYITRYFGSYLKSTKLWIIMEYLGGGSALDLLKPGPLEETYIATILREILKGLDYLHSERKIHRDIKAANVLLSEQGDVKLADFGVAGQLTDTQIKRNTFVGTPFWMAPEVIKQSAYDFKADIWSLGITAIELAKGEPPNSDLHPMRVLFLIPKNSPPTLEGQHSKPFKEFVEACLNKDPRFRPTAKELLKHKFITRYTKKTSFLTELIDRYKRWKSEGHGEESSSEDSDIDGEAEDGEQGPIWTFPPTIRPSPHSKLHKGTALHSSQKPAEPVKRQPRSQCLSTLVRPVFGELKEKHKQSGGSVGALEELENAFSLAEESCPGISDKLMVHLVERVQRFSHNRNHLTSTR
Tyrosine-protein kinase FRK (Homo sapiens), sequence (P42685 whole entry): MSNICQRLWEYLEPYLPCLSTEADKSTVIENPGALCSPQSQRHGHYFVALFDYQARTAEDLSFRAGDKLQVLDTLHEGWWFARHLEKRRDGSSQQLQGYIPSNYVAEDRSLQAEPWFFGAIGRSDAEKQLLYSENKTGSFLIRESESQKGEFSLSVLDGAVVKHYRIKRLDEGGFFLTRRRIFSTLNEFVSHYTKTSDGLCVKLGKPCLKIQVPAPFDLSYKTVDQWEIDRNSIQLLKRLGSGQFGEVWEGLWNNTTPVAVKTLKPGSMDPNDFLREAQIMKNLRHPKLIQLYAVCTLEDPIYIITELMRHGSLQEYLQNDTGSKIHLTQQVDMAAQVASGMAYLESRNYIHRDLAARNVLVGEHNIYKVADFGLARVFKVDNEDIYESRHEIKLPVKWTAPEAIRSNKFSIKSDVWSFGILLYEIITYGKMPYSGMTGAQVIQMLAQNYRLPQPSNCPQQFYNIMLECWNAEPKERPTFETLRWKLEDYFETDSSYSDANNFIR
LIM domain kinase 2 (Homo sapiens), sequence (P53671 whole entry, looked up, the tested form may be a part): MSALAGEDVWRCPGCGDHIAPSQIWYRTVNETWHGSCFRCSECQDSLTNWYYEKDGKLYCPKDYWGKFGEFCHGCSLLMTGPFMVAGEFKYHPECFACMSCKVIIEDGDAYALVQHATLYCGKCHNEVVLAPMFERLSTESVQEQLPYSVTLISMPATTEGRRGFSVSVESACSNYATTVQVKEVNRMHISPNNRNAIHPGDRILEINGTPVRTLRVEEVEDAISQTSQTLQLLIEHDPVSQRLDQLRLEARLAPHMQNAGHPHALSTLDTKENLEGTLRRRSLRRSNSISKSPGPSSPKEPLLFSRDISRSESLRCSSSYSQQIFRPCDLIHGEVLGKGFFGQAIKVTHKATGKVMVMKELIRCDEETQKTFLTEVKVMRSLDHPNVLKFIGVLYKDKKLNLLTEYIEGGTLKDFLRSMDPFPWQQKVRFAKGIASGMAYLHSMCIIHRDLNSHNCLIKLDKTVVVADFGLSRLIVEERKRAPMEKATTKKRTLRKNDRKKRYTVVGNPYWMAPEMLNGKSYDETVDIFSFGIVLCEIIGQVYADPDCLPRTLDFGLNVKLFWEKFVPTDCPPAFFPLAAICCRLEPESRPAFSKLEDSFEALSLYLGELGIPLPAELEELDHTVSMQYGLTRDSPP

% of inhibition [1]: -15.7%
Structure (SMILES): CC[C@@H]1[C@H](F)C(=O)N[C@@H]1COc1nccc2cc(C(N)=O)c(OC)cc12 [ZIMLOVISERTIB]

% of control [2]: 17.9%
Structure (SMILES): Cn1cc(-n2cnc3c(NCc4nc5cc(Cl)c(Cl)cc5[nH]4)nc(N4CCOCC4)nc32)cn1

% of control [3]: 107%
Structure (SMILES): CC(=O)c1cc(-c2ccccc2OCC2CC2)c2ncccn12

Structure (SMILES): COCC(=O)NC/C=C/c1ccc2ncnc(Nc3ccc(Oc4ccc(C)nc4)c(C)c3)c2c1 [CP-724714]
% of control [4]: 100%
% of control [5]: 100%

Structure (SMILES): COc1cc(N(C)c2ccnc3ccc(C(F)(F)F)cc23)cc(OC)c1OC
% binding [6]: 95%

% of control [7]: 90%
Structure (SMILES): C=CC(=O)Nc1cccc(C(=O)Nc2ccc(Nc3cc(-c4[nH]c(SC)nc4C)ccn3)cc2)c1

Structure (SMILES): CN(C)CCOc1ccc(-c2nc(-c3ccncc3)c(-c3ccc4c(c3)CC/C4=N\O)[nH]2)cc1
% of control [8]: 100%

Structure (SMILES): CNC(=O)Nc1ccc(-c2nc(N3CC4CCC(C3)O4)c3cnn(C4CCC5(CC4)OCCO5)c3n2)cc1
% of control [9]: 90%

Structure (SMILES): O=C(NOC[C@H](O)CO)c1ccc(F)c(F)c1Nc1ccc(I)cc1F
% of control [10]: 100%
